Test results taken from patent US11327083B2, “Treatment and differential diagnosis of Cushing's disease and ectopic Cushing's syndrome” (Corcept Therapeutics, Inc., priority 2016, dated 2022).

Key:
[1] = test system: patients having Cushing's Disease; assay: Mean plasma cortisol to ACTH (C:A) ratio during mifepristone treatment, patients having Cushing's Disease; assay type: in vivo, human
Method: (§1) Two groups of patients, which have been previously diagnosed as having Cushing's Disease, Ectopic Cushing's Syndrome using other methods, were enrolled in the study. The investigators were blind to the patients' diagnoses. Blood samples were obtained from each patient within 6 weeks prior to the enrollment in the study (“Day 1” samples). The patients were treated with mifepristone at a starting dose 300 mg daily, increased up to 1200 mg or 20 mg/kg over a period of 10 weeks. The mifepristone treatment continued for a total period of 24 weeks. Blood samples were taken during the course of the treatment, i.e., at the end of 14 days, and 6, 10, 16 and 24 weeks from the initial dose of mifepristone was given. All samples were taken at between 8-10 am on the day of the study. The ACTH levels and the cortisol levels of the plasma produced from the blood samples collected above were assayed using two-site immunometric assays (Mayo Clinic, Test ID ACTH) following the manufacturer's instructions.

[2] = test system: patients having Ectopic Cushing's Syndrome; assay: Mean plasma cortisol to ACTH (C:A) ratio during mifepristone treatment, patients having Ectopic Cushing's Syndrome; assay type: in vivo, human
Method: as §1

[3] = CD patients (n = 38), plasma, 8-10 am, mifepristone 300 mg daily increased up to 1200 mg or 20 mg/kg, Day 1 baseline mean 3.018
[4] = Ectopic patients (n = 3), plasma, 8-10 am, mifepristone 300 mg daily increased up to 1200 mg or 20 mg/kg, Day 1 baseline mean 18.552

`CC#C[C@]1(O)CC[C@H]2[C@@H]3CCC4=CC(=O)CCC4=C3[C@@H](c3ccc(N(C)C)cc3)C[C@@]21C` [mifepristone, 17-β-hydrox-11-β-(4-dimethyl-aminophenyl)17-α-(1-propynyl)estra-4,9-dien-3-one] was tested, and the “mean ratio of cortisol to ACTH, Week 16” value ([1]; CD patients (n = 32), plasma, 8-10 am, mifepristone 300 mg daily increased up to 1200 mg or 20 mg/kg, Day 1 baseline mean 3.018) was 5.788, the “mean ratio of cortisol to ACTH, Week 10” value ([1]; CD patients (n = 33), plasma, 8-10 am, mifepristone 300 mg daily increased up to 1200 mg or 20 mg/kg, Day 1 baseline mean 3.018) was 6.852 and the “mean ratio of cortisol to ACTH, Week 6” value [1, 3] was 3.396. For the same compound, the “mean ratio of cortisol to ACTH, Week 24/ET” value [1, 3] was 4.999, the “mean GRA-exposed C:A ratio relative to the mean baseline C:A ratio (peak)” value ([1]; Cushing's Disease patients, peak at the end of 10 weeks of mifepristone treatment) was “more than 2 fold” and the “mean GRA-exposed C:A ratio as % of the baseline ratio” value ([2]; Ectopic Cushing's Syndrome patients, end of 24 weeks treatment) was 11.6%. The “mean GRA-exposed C:A ratio as % of the mean baseline ratio” value ([2]; Ectopic Cushing's Syndrome patients, end of the six weeks' treatment) was “less than 50%”, the “mean ratio of cortisol to ACTH, Week 6” value [2, 4] was 9.241 and the “mean ratio of cortisol to ACTH, Week 10” value [2, 4] was 6.722. For the same compound, the “mean ratio of cortisol to ACTH, Week 16” value [2, 4] was 0.600 and the “mean ratio of cortisol to ACTH, Week 24/ET” value [2, 4] was 2.154.
